Source: US20250243171A1, “QUINAZOLINE COMPOUNDS FOR TREATMENT OF DISEASE” (Arthrosi Therapeutics, Inc., priority 2021, published 2025)

Legend:
Assay in all cases: EC50 assay: Ba/F3 stable cell proliferation (CCK-8, 72 h)
Format in all cases: cell-based
Ba/F3 stable cells [1] = biological target: T1, Ba/F3 stable cells (Homo sapiens, UniProt P04626, DUP772-775, cells depend on it); details: Ba/F3-HER2 A775-G776insYVMA cells
T1 construct: EC50 Ba/F3-HER2 A775-G776insYVMA; other: Ba/F3-HER2 A775-G776insYVMA cells, 72 h, CCK-8
In short: (§1)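 Ba/F3 stable cells were seeded at 4,000 cells/90 μL/well in 96-well plates and held 2 h at 37° C. in 5% CO2, then given 10 μL of serially titrated compound (0.1% DMSO final). After 72 h at 37° C., CCK-8 reagent was added for 4 hours and absorbance read at 450 nm to derive EC50.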

Ba/F3 stable cells [2] = biological target: T2, Ba/F3 stable cells (Homo sapiens, UniProt P00533, INS763FQEA, cells depend on it); details: Ba/F3-EGFR A763-Y764insFQEA cells
T2 construct: EC50 Ba/F3-EGFR A763-Y764insFQEA; other: Ba/F3-EGFR A763-Y764insFQEA cells, 72 h, CCK-8
In short: as §1

Ba/F3 stable cells [3] = biological target: T3, Ba/F3 stable cells (Homo sapiens, UniProt P00533, DUP767-769, cells depend on it); details: Ba/F3-EGFR V769-D770insASV cells
T3 construct: EC50 Ba/F3-EGFR V769-D770insASV; other: Ba/F3-EGFR V769-D770insASV cells, 72 h, CCK-8
In short: as §1

Ba/F3 stable cells [4] = biological target: T4, Ba/F3 stable cells (Homo sapiens, UniProt P00533, DUP768-770, cells depend on it); details: Ba/F3-EGFR D770-N771insSVD cells
T4 construct: EC50 Ba/F3-EGFR D770-N771insSVD; other: Ba/F3-EGFR D770-N771insSVD cells, 72 h, CCK-8
In short: as §1

Ba/F3 stable cells [5] = biological target: T5, Ba/F3 stable cells (Homo sapiens, UniProt P00533, T790M/L858R, cells depend on it); details: Ba/F3-EGFR L858R-T790M cells
T5 construct: EC50 Ba/F3-EGFR L858R-T790M; other: Ba/F3-EGFR L858R-T790M cells, 72 h, CCK-8
In short: as §1

Ba/F3 stable cells [6] = biological target: T6, Ba/F3 stable cells (Homo sapiens, UniProt P00533, DUP771-773, cells depend on it); details: Ba/F3-EGFR H773-V774insNPH cells
T6 construct: EC50 Ba/F3-EGFR H773-V774insNPH; other: Ba/F3-EGFR H773-V774insNPH cells, 72 h, CCK-8
In short: as §1

T1 sequence (P04626 with tags, fused parts or gaps DUP772-775): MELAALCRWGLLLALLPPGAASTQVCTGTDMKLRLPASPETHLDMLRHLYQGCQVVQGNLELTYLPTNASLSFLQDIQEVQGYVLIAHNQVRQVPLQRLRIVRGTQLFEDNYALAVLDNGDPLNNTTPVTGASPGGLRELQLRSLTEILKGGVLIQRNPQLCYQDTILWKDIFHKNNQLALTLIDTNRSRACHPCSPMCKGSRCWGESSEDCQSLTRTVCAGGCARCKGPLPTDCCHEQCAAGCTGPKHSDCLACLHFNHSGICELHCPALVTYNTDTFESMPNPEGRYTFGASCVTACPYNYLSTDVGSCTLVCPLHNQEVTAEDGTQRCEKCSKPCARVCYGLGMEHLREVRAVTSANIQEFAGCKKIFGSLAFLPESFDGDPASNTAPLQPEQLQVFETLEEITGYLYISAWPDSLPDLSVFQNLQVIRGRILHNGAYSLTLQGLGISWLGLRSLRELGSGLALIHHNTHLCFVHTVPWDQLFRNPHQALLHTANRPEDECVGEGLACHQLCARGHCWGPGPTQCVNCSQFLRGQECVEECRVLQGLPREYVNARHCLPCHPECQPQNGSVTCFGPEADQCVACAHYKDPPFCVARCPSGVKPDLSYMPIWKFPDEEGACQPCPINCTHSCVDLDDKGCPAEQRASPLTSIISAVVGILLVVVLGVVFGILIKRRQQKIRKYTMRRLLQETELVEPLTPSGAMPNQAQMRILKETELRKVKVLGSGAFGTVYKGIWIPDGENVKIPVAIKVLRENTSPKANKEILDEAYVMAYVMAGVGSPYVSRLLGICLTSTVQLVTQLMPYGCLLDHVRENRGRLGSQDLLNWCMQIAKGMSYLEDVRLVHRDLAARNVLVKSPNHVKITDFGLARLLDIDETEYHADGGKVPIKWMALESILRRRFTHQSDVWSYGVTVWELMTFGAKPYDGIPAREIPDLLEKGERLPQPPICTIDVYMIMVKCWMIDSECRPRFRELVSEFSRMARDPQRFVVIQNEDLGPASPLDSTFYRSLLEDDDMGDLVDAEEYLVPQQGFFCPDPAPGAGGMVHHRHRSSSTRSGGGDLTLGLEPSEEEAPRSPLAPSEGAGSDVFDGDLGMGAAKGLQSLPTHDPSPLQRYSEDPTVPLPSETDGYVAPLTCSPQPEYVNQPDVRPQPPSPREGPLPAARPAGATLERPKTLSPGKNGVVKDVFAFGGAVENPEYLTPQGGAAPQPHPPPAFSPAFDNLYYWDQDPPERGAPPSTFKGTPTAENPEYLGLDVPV
T5 sequence (P00533 whole entry T790M/L858R): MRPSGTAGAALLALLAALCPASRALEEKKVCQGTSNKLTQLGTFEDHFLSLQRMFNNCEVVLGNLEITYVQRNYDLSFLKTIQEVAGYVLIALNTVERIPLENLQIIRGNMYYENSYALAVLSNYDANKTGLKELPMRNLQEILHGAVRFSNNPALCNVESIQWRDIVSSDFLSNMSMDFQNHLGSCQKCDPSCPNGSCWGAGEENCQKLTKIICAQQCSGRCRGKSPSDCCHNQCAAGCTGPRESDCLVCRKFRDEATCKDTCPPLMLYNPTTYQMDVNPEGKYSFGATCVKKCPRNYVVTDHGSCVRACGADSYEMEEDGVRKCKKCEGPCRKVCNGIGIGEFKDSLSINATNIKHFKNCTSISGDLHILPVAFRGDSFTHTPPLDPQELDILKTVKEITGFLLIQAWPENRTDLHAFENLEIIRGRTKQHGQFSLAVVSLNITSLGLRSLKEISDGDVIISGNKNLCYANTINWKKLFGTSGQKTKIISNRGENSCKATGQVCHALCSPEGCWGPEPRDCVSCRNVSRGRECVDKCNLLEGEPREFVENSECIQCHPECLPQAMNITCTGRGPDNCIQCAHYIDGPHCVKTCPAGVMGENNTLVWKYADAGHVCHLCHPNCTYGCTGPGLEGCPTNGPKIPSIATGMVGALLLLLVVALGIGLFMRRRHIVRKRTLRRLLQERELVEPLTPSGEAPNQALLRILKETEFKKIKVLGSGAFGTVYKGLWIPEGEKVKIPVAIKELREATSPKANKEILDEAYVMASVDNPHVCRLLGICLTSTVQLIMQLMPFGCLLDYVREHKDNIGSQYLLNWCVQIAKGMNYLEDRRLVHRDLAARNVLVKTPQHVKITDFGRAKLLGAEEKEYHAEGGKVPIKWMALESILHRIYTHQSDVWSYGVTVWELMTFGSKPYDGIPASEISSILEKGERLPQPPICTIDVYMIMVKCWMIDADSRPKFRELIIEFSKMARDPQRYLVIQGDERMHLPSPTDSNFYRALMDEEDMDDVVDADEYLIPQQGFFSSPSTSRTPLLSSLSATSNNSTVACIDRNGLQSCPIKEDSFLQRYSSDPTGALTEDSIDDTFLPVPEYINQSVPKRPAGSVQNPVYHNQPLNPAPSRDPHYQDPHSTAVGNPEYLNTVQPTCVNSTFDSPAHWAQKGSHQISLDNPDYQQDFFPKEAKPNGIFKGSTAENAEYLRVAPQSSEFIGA
T3 sequence (P00533 with tags, fused parts or gaps DUP767-769): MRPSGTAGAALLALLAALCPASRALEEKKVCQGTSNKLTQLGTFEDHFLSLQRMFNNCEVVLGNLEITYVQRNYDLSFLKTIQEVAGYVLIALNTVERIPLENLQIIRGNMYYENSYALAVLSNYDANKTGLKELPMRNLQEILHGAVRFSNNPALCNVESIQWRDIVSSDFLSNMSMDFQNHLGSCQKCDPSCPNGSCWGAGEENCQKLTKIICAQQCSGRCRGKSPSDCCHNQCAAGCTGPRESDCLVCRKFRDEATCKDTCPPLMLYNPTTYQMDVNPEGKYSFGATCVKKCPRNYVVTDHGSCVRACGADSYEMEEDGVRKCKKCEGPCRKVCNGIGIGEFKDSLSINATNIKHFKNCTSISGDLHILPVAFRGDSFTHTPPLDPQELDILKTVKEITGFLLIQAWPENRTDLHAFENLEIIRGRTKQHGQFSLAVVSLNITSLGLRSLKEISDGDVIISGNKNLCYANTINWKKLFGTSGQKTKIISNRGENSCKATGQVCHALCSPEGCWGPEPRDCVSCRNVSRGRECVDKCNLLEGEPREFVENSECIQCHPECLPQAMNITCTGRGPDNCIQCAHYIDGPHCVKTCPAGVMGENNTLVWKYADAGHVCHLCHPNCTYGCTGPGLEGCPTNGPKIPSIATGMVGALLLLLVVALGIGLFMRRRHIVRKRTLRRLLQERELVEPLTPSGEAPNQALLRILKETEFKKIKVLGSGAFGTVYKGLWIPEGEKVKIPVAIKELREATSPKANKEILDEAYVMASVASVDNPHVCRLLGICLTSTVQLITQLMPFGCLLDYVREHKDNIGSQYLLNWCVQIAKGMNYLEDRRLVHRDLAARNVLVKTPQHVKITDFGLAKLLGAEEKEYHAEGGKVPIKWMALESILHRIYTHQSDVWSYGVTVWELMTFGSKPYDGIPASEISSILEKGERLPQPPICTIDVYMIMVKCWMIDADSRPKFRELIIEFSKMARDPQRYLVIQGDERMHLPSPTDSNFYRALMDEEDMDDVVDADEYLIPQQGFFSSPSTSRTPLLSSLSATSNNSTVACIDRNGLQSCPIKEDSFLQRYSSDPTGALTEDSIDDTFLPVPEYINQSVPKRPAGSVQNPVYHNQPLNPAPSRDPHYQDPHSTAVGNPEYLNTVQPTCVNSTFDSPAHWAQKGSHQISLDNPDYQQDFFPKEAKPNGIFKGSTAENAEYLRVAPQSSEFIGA
T2 sequence (P00533 with tags, fused parts or gaps INS763FQEA): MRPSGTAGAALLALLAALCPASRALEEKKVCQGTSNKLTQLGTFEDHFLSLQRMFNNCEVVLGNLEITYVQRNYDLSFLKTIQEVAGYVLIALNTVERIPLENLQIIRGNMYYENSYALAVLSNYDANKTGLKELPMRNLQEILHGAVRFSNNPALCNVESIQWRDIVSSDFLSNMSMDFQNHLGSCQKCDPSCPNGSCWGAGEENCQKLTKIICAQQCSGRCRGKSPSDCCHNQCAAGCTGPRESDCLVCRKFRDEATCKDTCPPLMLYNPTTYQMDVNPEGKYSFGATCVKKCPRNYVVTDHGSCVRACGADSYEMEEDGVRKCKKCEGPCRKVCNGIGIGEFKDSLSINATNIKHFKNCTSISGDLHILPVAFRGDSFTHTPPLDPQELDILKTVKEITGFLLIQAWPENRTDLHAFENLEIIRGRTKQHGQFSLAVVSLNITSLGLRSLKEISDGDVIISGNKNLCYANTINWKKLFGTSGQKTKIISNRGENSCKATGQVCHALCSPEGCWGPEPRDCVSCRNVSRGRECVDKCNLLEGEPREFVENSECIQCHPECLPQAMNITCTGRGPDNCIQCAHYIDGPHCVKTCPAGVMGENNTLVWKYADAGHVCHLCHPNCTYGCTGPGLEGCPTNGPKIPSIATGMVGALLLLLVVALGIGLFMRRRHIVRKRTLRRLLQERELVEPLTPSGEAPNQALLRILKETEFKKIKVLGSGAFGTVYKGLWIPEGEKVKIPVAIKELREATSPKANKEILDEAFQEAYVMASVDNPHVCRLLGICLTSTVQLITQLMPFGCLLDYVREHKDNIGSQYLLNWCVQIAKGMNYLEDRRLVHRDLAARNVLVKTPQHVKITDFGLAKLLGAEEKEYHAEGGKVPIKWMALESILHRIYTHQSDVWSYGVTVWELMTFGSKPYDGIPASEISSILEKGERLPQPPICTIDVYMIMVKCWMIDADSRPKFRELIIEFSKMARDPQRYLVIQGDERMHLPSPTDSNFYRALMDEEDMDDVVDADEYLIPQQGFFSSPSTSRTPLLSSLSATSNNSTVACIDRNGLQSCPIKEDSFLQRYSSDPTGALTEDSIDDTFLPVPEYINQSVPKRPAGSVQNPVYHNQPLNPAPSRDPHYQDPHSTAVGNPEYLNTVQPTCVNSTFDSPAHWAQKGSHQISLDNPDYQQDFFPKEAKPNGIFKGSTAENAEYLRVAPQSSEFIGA

EC50 (Ba/F3 stable cells [1]) | EC50 (Ba/F3 stable cells [2]) | EC50 (Ba/F3 stable cells [3]) | EC50 (Ba/F3 stable cells [4]) | EC50 (Ba/F3 stable cells [5]) | EC50 (Ba/F3 stable cells [6]) | SMILES
200 to 1000 nM | ≤ 200 nM | 200 to 1000 nM | 200 to 1000 nM | ≤ 200 nM | ≤ 200 nM | C#CC(=O)N1CCC(Oc2c(OC)cc3ncnc4c3c2NC(=O)N4c2ccc(Cl)c(Cl)c2)CC1 [Compound 227, 3-(3,4-dichlorophenyl)-8-methoxy-9-((1-propioloylpiperidin-4-yl)oxy)-1H-pyrimido[4,5,6-de]quinazolin-2(3H)-one]
> 1000 nM | ≤ 200 nM | 200 to 1000 nM | > 1000 nM | ≤ 200 nM | > 1000 nM | C=CC(=O)NC1COc2c(-c3cnc4ccccc4c3)c3c(N)ncnc3n2C1 (stereo not drawn) [Compound 228, N-(4-amino-5-(quinolin-3-yl)-8,9-dihydro-7H-pyrimido[5′,4′:4,5]pyrrolo[2,1-b][1,3]oxazin-8-yl)acrylamide]
